In PubChem BioAssay (NCI):
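Compound exposure: 48 hours, 5 concentrations, 96-well plates. The concentration for 50% growth inhibition is given as GI50. TGI marks complete inhibition of growth.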

What was measured:
Assay in all cases: NCI anticancer screen, dose series, 48 h
UACC-62 melanoma = system: UACC-62 melanoma
HT29 colon = system: HT29 colon
SN12C renal = system: SN12C renal
NCI-H522 lung = system: NCI-H522 lung
HCC-2998 colon = system: HCC-2998 colon
HCT-15 colon = system: HCT-15 colon
UACC-257 melanoma = system: UACC-257 melanoma
SR leukemia = system: SR leukemia
CAKI-1 renal = system: CAKI-1 renal
PC-3 prostate = system: PC-3 prostate

Compound | TGI (UACC-62 melanoma) [µM] | TGI (HT29 colon) [µM] | TGI (SN12C renal) [µM] | TGI (NCI-H522 lung) [µM] | TGI (HCC-2998 colon) [µM] | TGI (HCT-15 colon) [µM] | TGI (UACC-257 melanoma) [µM] | TGI (SR leukemia) [µM] | TGI (CAKI-1 renal) [µM] | GI50 (NCI-H522 lung) [µM] | GI50 (UACC-257 melanoma) [nM] | GI50 (PC-3 prostate) [nM] | TGI (PC-3 prostate) [µM] | GI50 (CAKI-1 renal) [nM]
CC(C)(C)C#C[P+](c1ccccc1)(c1ccccc1)c1ccccc1 | 0.979 | 1.11 | 0.877 | 0.448 | 0.986 | 5.9 | 2.07 | 0.611 | 2.91 |  |  |  |  | 
Cc1c(CNc2ccc(Cl)c(C(=O)NC(CC(=O)O)C(=O)O)c2)ccc2nc(N)nc(N)c12 (configuration not stated) | > 1000 | > 1000 | > 1000 | 682 |  | > 1000 | > 1000 |  | > 1000 | 211 | 2970 | < 10 | > 1000 | 617
Cc1ccccc1N=C(N)NC#N | > 100 | > 100 | > 100 |  | > 100 | > 100 | > 100 | > 100 | > 100 |  |  |  | > 100 | 
Cc1ccc(S(=O)(=O)NC(=O)NC(Cc2c[nH]c3ccccc23)C(=O)O)cc1 (configuration not stated) |  | > 100 | > 100 | > 100 |  | > 100 | > 100 | > 100 |  |  |  |  | > 100 | 
C/C(O)=C/c1nc2ccccc2nc1/C=C(/C)O | 45.4 | 43.3 | 97.7 | 27.7 |  | > 100 | 41 | 77.5 | > 100 |  |  |  | > 100 | 
O=S(=O)(c1cc(Cl)ccc1Cl)N1CCN(S(=O)(=O)c2cc(Cl)ccc2Cl)CC1 | 2.48 | > 100 | > 100 | > 100 | > 100 | > 100 | > 100 |  | > 100 |  |  |  | > 100 | 
COc1ccc(/C=N\N2CC(=O)N3C4C=CC(CC4)N3C2=O)cc1 (configuration not stated) | > 100 | > 100 | > 100 |  |  | > 100 | > 100 | > 100 | > 100 |  |  |  | > 100 | 
CCNC(=S)N/N=C/c1cc(OC)ccc1O | > 100 | > 100 | > 100 | > 100 | > 100 | > 100 | > 100 | > 100 |  |  |  |  | > 100 | 
C[C@]12CC[C@H]3[C@@H](CCC4=CC(=O)C=C[C@@]43O)[C@@H]1CCC2=O | > 100 |  | > 100 |  | > 100 | > 100 | > 100 | > 100 | > 100 |  |  |  | > 100 | 
CO/C(=N\N=C\c1ccc(Cl)cc1)c1ccncc1 | > 100 | > 100 | > 100 | > 100 | > 100 | > 100 | > 100 | > 100 | > 100 |  |  |  |  | 
O=C(NCC1Nc2ccncc2S(=O)(=O)N1)c1ccc(Br)cc1 (configuration not stated) | > 100 | > 100 | > 100 | > 100 | > 100 | > 100 | > 100 |  | > 100 |  |  |  | 51.4 | 
O=C1C=Cc2c(Cl)sc(Cl)c21 | 8.64 | 3.34 | > 100 |  | 13.8 | 3.14 | 4.78 |  | 4.57 |  |  |  | 4.83 | 
Cc1nc2c(cc1C(=O)NN)c(=O)n(C)c(=O)n2C | > 100 | > 100 | > 100 |  | > 100 | > 100 | > 100 |  | > 100 |  |  |  | > 100 | 
CCCC(Sc1nc(N)nc2nc[nH]c12)C(=O)O (configuration not stated) | > 100 | > 100 | > 100 | > 100 | 76.9 | > 100 | > 100 |  | > 100 |  |  |  | > 100 | 
C=CCOc1ccc(C2c3c([nH][nH]c3=O)CC(O)(OCC)C2C(=O)OCC)cc1OC (configuration not stated) |  | > 100 | > 100 | > 100 | > 100 | > 100 | > 100 |  | > 100 |  |  |  | > 100 | 
O=C1COC(c2ccccc2O)=NN1CCCN1CCCC1 | > 100 | > 100 | > 100 | > 100 |  | > 100 | > 100 | > 100 | > 100 |  |  |  | > 100 | 
COc1cc(Oc2nc3ccccc3nc2C(=O)O)cc(OC)c1OC | > 100 | > 100 |  | > 100 | > 100 | > 100 | > 100 | > 100 | > 100 |  |  |  | > 100 | 
Oc1nc(N/N=C/c2c[nH]c3ccccc23)[nH]c1/C=C1\C=Nc2ccccc21 | 37.7 | 47.5 | > 100 | 24.2 |  | 61 | 79.4 |  | > 100 |  |  |  | 32 | 
Nn1c(Cc2ccc(Cl)cc2)n[nH]c1=O | > 100 | > 100 | > 100 | > 100 | > 100 | > 100 | > 100 | > 100 | > 100 |  |  |  |  | 
Cc1oc2nc1C(=O)NCc1nc(cs1)C(=O)N[C@H](C(C)C)c1nc(cs1)C(=O)N[C@H]2C | > 100 | > 100 | > 100 | 87.4 | > 100 | > 100 | > 100 |  | > 100 |  |  |  | > 100 | 
CC(C)(C)c1cc(C(O)(C(=O)O)C(=O)O)cc(C(C)(C)C)c1O | > 100 | > 100 | > 100 | > 100 |  | > 100 | > 100 | > 100 | > 100 |  |  |  | > 100 | 
C=Nc1ccc([N+](=O)[O-])cc1 | > 100 | > 100 | > 100 | > 100 | > 100 | > 100 | > 100 | > 80.1 | > 100 |  |  |  |  | 
Cc1cccc2c1C(=O)C1(Cc3ccccc3C1=O)C2 (configuration not stated) | > 100 | > 100 | > 100 | > 100 | > 100 | > 100 | > 100 | > 100 |  |  |  |  | > 100 | 
COC(=O)C1=C(C)N2CCCOC2(C)C(C(=O)OC)C1c1cccc(Cl)c1 (configuration not stated) | 36.5 | 56.2 |  |  | > 100 |  | 57.1 |  | 92.5 |  |  |  |  | 
